Ends that are not written are not given here. BA1 = not defined here
How the values were obtained:
Assay type in all cases: biochemical
protein kinase A [1] = molecular target: T1, protein kinase A (Bos taurus, UniProt P00517); experiment: Phosphorylation of glass-immobilised peptide array by protein kinase A (FIG. 9, Example 33); conditions: protein kinase A 10 U/mL, ATP/γ32P-ATP, 30 min at 25° C., maleinimido-functionalised glass, PhosphorImager
T1 construct: purchased Sigma P26452 as printed
Protocol: FIG. 9. Precisely 43 serine and/or threonine-containing peptides (potential substrate peptides for kinases) and the corresponding control peptides, each modified at the N-terminus with the dipeptide cysteinyl-β-alanine, were coupled to a maleinimido-functionalised glass surface by a Michael addition (Example 18). In the control peptides the serine and/or threonine residues were replaced by alanine, the sequence remaining otherwise the same. The application was carried out using a NanoPlotter from Gesim. The spot-to-spot distance was 1 mm and 0.8 nL of a peptide solution in 100 mM PBS buffer pH 7.8, containing 20% glycerin, was applied per spot. Here a filled circle represents a serine- or threonine-containing potential substrate peptide and an open circle stands for a control peptide. Three identical subarrays were applied to the glass surface. The numbering of the spots can be seen in FIG. 9C, the sequences of the peptides used are obtained from Example 18. […] After incubation for 30 min at 25° C. the phosphorylation of the corresponding peptides was detected using a FUJIFILM PhosphorImager (Example 39). […]
(§1) After drying the glass surface the quantity of radioactive phosphate incorporated in the glass-surface-bound peptides was determined using a PhosphorImager system (FLA-3000, FUJIFILM). […]

protein kinase C = experiment: Phosphorylation of glass-immobilised peptide array by protein kinase C (FIG. 8, Example 32); conditions: protein kinase C 10 U/mL, ATP/γ32P-ATP, 30 min at 25° C., maleinimido-functionalised glass, PhosphorImager
Protocol: FIG. 8. Precisely 43 serine and/or threonine-containing peptides (potential substrate peptides for kinases) and the corresponding control peptides, each modified at the N-terminus with the dipeptide cysteinyl-β-alanine, were coupled to a maleinimido-functionalised glass surface by a Michael addition (Example 18). In the control peptides the serine and/or threonine residues were replaced by alanine, the sequence remaining otherwise the same. The application was carried out using a NanoPlotter from Gesim. The spot-to-spot distance was 1 mm and 0.8 nL of a peptide solution in 100 mM PBS buffer pH 7.8, containing 20% glycerin, was applied per spot. Here a filled circle represents a serine- or threonine-containing potential substrate peptide and an open circle stands for a control peptide. Three identical subarrays were applied to the glass surface. The numbering of the spots can be seen in FIG. 8C, the sequences of the peptides used are obtained from Example 18. After application of the peptides, the modified glass surface was first pre-incubated for 10 minutes using 10 ml of 100 μM ATP solution in 50 mM of sodium phosphate buffer pH 7.5. The modified glass surface was then covered with a second glass surface and Protein kinase C (10 U/mL) together with ATP/γ^32P-ATP mixture (100 μM/mL; 100 μCi/mL) was then inserted into the intermediate space formed thereby by means of capillary force. After incubation for 30 min at 25° C. the phosphorylation of the corresponding peptides was detected using a FUJIFILM PhosphorImager (Example 38). The spots having higher signal intensity in all three subarrays were assigned to the corresponding peptides phosphorylated by the protein kinase C. […] It is thus clear that such an assembly is suitable for characterising the substrate specificity of a kinase, such as protein kinase C, for example.
Precisely 43 serine- and/or threonine-containing peptides (potential substrate peptides for kinases) and the corresponding control peptides, each modified at the N-terminus with the dipeptide cysteinyl-β-alanine, were coupled to a maleinimido-functionalised glass surface by a Michael addition (see Example 18). The numbering of the spots can be seen from FIG. 8C and the sequences of the peptides used are obtained from Example 18. After application of the peptide, the modified glass surface was first pre-incubated using 10 mL of 100 μM ATP […] solution in 50 mM sodium phosphate buffer pH 7.5 for […] minutes. The modified glass surface was then covered with a cover glass and protein kinase C (10 U/mL) together with ATP/γ-^32P-ATP mixture (100 μM/mL; 100 μCi/mL) was incorporated in the intermediate space formed by means of capillary force. Incubation was then carried out for 30 min at 25° C. […]
as §1

protein kinase A [2] = molecular target: T1, protein kinase A; experiment: Incubation of modified glass surface (11760 spots) with protein kinase A (FIG. 6, Example 28); conditions: bromoketone-functionalised glass, thioamide linkage, protein kinase A 10 U/mL, 30 min at 25° C.
Protocol: FIG. 6. A glass surface modified with the peptide Leu-Arg-Arg-Ala-Ser-Leu-Gly-thioamide (see Example 24) amino acid sequence was dissolved in 200 mM sodium phosphate buffer pH 5.5 and at room temperature respectively 1 nL of this solution in an assembly of 70 rows and 168 gaps (total 11760) was applied to the bromoketone-functionalised glass surfaces (Example 10) using a NanoPlotter from Gesim. The spot-to-spot distance was 0.3 mm. The glass surfaces thus treated were then subjected to microwave treatment for 2 min and then incubated for 3 hours at room temperature. Pre-incubation was then carried out for 10 minutes using 10 ml of 100 μM ATP solution in 50 mM of sodium phosphate buffer pH 7.5. […] After incubation for 30 min at 25° C. the phosphorylation of the corresponding peptides was detected using a FUJIFILM PhosphorImager. […] It is furthermore clear that the resolution of the PhosphorImager used here is sufficient to analyse more than 11000 measurement points per biochip. […]
After drying the glass surface the quantity of radioactive phosphate incorporated in the glass-surface-bound peptides was determined using a PhosphorImager system (FLA-3000, FUJIFILM) (see FIG. 6).

With “Arg-Arg-Ile-Ser-Lys-Asp-Asn-Pro-Asp-Tyr-Gln-Gln-Asp-BA1-Cys-NH2 (RRISKDNPDYQQD-{BA1-Cys-NH2}; reading uncertain; also: printed as Arg-Arg-Ile-Ser-Lys-Asp-Asn-Pro-Asp-Tyr-Gln-Gln-Asp-BA1-Cys-NH2) [peptide 83]” the “recognised and phosphorylated by protein kinase A on the modified glass surface” value (protein kinase A [1]) was “not phosphorylated”.

With “Cys-BA1-Pro-Lys-Asp-Pro-Ser-Gln-Arg-Arg-Arg-NH2 ({Cys-BA1}-PKDPSQRRR-NH2; reading uncertain; also: printed as Cys-BA1-Pro-Lys-Asp-Pro-Ser-Gln-Arg-Arg-Arg-NH2) [compound 43]” the “recognised and phosphorylated by protein kinase C on the modified glass surface” value (protein kinase C) was “recognised and phosphorylated”.

In the case of “Cys-BA1-Pro-Leu-Ser-Arg-Thr-Leu-Ser-Val-Ala-Ala-Lys-Lys-NH2 ({Cys-BA1}-PLSRTLSVAAKK-NH2; reading uncertain; also: printed as Cys-BA1-Pro-Leu-Ser-Arg-Thr-Leu-Ser-Val-Ala-Ala-Lys-Lys-NH2) [compound 23]”, the “recognised and phosphorylated by protein kinase C on the modified glass surface” value (protein kinase C) is reported as “recognised and phosphorylated”.

With “Cys-BA1-Ala-Lys-Arg-Arg-Arg-Leu-Ser-Ser-Leu-Arg-Ala-NH2 ({Cys-BA1}-AKRRRLSSLRA-NH2; reading uncertain; also: printed as Cys-BA1-Ala-Lys-Arg-Arg-Arg-Leu-Ser-Ser-Leu-Arg-Ala-NH2) [compound 3]” the “recognised and phosphorylated by protein kinase C on the modified glass surface” value (protein kinase C) was “recognised and phosphorylated”.

For “Cys-BA1-Gln-Lys-Arg-Pro-Ser-Gln-Arg-Ser-Lys-Tyr-Leu-NH2 ({Cys-BA1}-QKRPSQRSKYL-NH2; reading uncertain; also: printed as Cys-BA1-Gln-Lys-Arg-Pro-Ser-Gln-Arg-Ser-Lys-Tyr-Leu-NH2) [compound 27]”, the “recognised and phosphorylated by protein kinase C on the modified glass surface” value (protein kinase C) was “recognised and phosphorylated”.

With “Leu-Arg-Arg-Ala-Ser-Leu-Gly-thioamide (LRRASLG-thioamide)” the “linking of the immobilised kinase substrate tolerated by protein kinase A” value (protein kinase A [2]) was “tolerated by the protein kinase A”.

With “Cys-BA1-Lys-Lys-Arg-Phe-Ser-Phe-Lys-Lys-Ser-Phe-Lys-Leu-NH2 ({Cys-BA1}-KKRFSFKKSFKL-NH2; reading uncertain; also: printed as Cys-BA1-Lys-Lys-Arg-Phe-Ser-Phe-Lys-Lys-Ser-Phe-Lys-Leu-NH2) [compound 41]” the “recognised and phosphorylated by protein kinase C on the modified glass surface” value (protein kinase C) was “recognised and phosphorylated”.

Source: patent publication US8029979B2, “Method for determining the substrate specificity of an enzyme” (JPT Peptide Technologies GmbH, priority 2001, dated 2011)
